Source: US10512667B2, “Compositions and methods for treating conditions related to adrenocortical activity and/or excessive steroid production” (The Regents of the University of Michigan, priority 2017, dated 2019)
“Also recorded” adds a separate entry of the source.

Columns and labels:
H295R cells [1] = experiment: Visualization of cholesterol levels by filipin III binding; format: cell-based; details: for cholesterol level (filipin III binding), compound alone: serum-free medium containing apoA-I, 4 h
Procedure: The cells were seeded in 96-well ibiTreat μ-Plates and allowed to adhere for 48 h prior to the start of each experiment. Cholesterol was detected in fixed cells by incubating with 100 μg/ml filipin III at 37 C for 2 h. […] Images were captured using either a 4× or a 60× objective. Cholesterol esterification was visualized by culturing the cells with 1 μM NBD-cholesterol for 2 h following incubation with the indicated compounds. […] Images were captured using either a 20× or a 60× objective.
The medium was removed and immediately replaced with 100 μl of 4% paraformaldehyde and the cells were fixed at room temperature for 20 min. The cells were washed twice with 200 μl PBS. […] The fixed cells were incubated with filipin III at 37 C in the dark for 2 h.

H295R cells [2] = experiment: Cellular ATP level (CellTiter-Glo); details: for ATP level in combination with ATR-101 versus separately: compound together with ATR-101 at concentrations not cytotoxic separately; for ATP depletion at high concentrations of inhibitors of steroidogenesis: alone and in combination with ATR-101, 4 h; for ATP level, compound alone: serum-free medium;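 for all read-outs here: ATP quantified by luminescence after lysing the cells in CellTiter-Glo reagent, with compound exposure at 37 °C under 5% CO2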
Procedure: The ATP levels of cells were measured by lysis in CellTiter-Glo reagent (Promega), and measurement of the luminescence.
After 48 h, 20-80 μl of medium was removed from each well and replaced with 20 μl of each compound diluted to 6× of the final concentration in the culture medium to produce a final volume of 120 μl. The cells were incubated at 37 C in 5% CO2 atmosphere for a time ranging from 15 min to 24 h. The medium was removed and immediately replaced with 50 μl of CellTiter-Glo luminescence cell viability assay reagent (Promega). The cells were lysed by agitation at room temperature for 20 min in the dark. The luminescence was measured using a SpectraMax M5 microplate reader (Molecular Devices) with a 0.5 s acquisition time. The luminescence (RLU) values for control cells ranged from 5000 to 20000 RLU in all experiments, and were scaled by a factor of 0.001 to plot all graphs.

MDR1 = biological target: T1, MDR1 (Homo sapiens, UniProt P08183); experiment: Doxorubicin accumulation / clearance in H295R cells; format: cell-based; details: 25 μM doxorubicin, 20 μM compound, 2 h
T1 construct: measured the accumulation of doxorubicin in H295R cells; endogenous in cells; host or cells: H295R adrenocortical carcinoma cells
Procedure: The medium was removed and immediately replaced with 100 μl of fresh media and intracellular doxorubicin fluorescence was visualized by fluorescence microscopy using a 20× objective.

H295R cells [3] = experiment: Cholesterol efflux into serum-free medium with apoA1; format: cell-based; details: serum-free medium containing apoA-I
Procedure: Cholesterol efflux was measured by replacing the culture medium with serum-free medium supplemented with 5 μg/ml apoA1 (Sigma) and the indicated compounds. After the indicated time, the serum-free medium was collected, and the cholesterol concentration was measured using the fluorometric enzyme-linked assay (Cayman Chemical).
After 48 h, the medium was removed and replaced with 50 μl serum-free medium supplemented with 5 μg/mL apoA1. After the indicated time, the supernatant containing the effluxed cholesterol, was transferred to a new 96-well plate. A cholesterol detection reagent (Cayman Chemical) consisting of cholesterol assay buffer, cholesterol assay detector (10-acetyl-3,7-dihydroxyphenoxazine [ADHP]), horseradish peroxidase, cholesterol oxidase, and cholesterol esterase was added, and the reactions were incubated for 30 min at 37 C. The fluorescence intensities were measured using ex. […] 590 nm. The cholesterol concentrations were calculated by interpolation between the values produced by cholesterol standards that were analyzed in parallel.

H295R cells [4] = experiment: Cortisol secretion (indirect ELISA); format: cell-based
Procedure: Cortisol secretion was measured by replacing the culture medium with fresh medium containing the indicated compounds. The medium was collected at the indicated times. The cortisol concentration in the medium was measured using indirect ELISA (Arbor Assays).
After 48 h, the medium was removed and replaced with 50 μl of fresh medium. After the indicated incubation time, aliquots of the supernatant ranging from 0.5 to 10 μl were diluted in 50 μl of medium were used to measure the amount of cortisol secreted. Cortisol detection and quantification were performed by indirect ELISA according to the manufacturer's protocol (Arbor Assays #K003).

[5] = H295R cells cultured with the compound together with ATR-101, 4 h
[6] = H295R cells, serum-free medium containing apoA-I, together with ATR-101

CCN(CC)CCO[C@H]1CC[C@@]2(C)C(=CC[C@@H]3[C@@H]2CC[C@]2(C)C(=O)CC[C@@H]32)C1 [U18666A, 3β-(2-diethylaminoethoxy)-5-androsten-17-one]
cholesterol accumulation in combination with ATR-101 versus separately (H295R cells [1]; H295R cells, 20 μM ATR-101 with 5 μM benzamil (1 h) or 8 μM U18666A (serum-free)): greater than additive increase in cholesterol accumulation | ATP level in combination with ATR-101 versus separately (H295R cells [2]; H295R cells, 4 h): caused ATP depletion at concentrations that had no detectable effect on the ATP level separately

CC(=O)O[C@H]1CC[C@@]2(C)C(=CC[C@@H]3[C@@H]2CC[C@]2(C)C(c4cccnc4)=CC[C@@H]32)C1 [abiraterone acetate]
ATP depletion at high concentrations of inhibitors of steroidogenesis (H295R cells [2]; H295R cells): enhanced ATP depletion

NC(=NCc1ccccc1)NC(=O)c1nc(Cl)c(N)nc1N [benzamil]
doxorubicin accumulation (MDR1): did not increase doxorubicin accumulation

CCCCC/C=C\C/C=C\CCCCCCCC(=O)O[C@H]1CC[C@@]2(C)C(=CC[C@H]3[C@@H]4CC[C@H]([C@H](C)CCCC(C)C)[C@@]4(C)CC[C@@H]32)C1 [cholesterol linoleate]
effect on cholesterol accumulation caused by ATR-101 (H295R cells [1]; H295R cells cultured with the compound together with ATR-101, 4 h or 24 h): did not prevent the accumulation of cellular cholesterol | effect on ATP depletion by ATR-101 (H295R cells [2]; H295R cells cultured with the compound together with ATR-101, 24 h): did not prevent

COc1ccc(Cl)cc1C(=O)NCCc1ccc(S(=O)(=O)NC(=O)NC2CCCCC2)cc1 [glibenclamide]
cholesterol level (filipin III binding), compound alone (H295R cells [1]; H295R cells): lack of cholesterol accumulation | cholesterol level (filipin III binding), compound alone (H295R cells [1]; H295R cells, listed as Glibenclamide): did not cause cholesterol accumulation | cholesterol efflux, compound alone (H295R cells [3]; 4 h): blocked cholesterol efflux | ATP level in combination with ATR-101 versus separately (H295R cells [2]; H295R cells, 4 h): did not cause a larger than additive reduction in the ATP levels; also recorded: did not increase the efficiency of ATP depletion | ATP level, compound alone (H295R cells [2]; H295R cells, 4 h): did not reduce the ATP level

CC(=O)N1CCN(c2ccc(OCC3COC(Cn4ccnc4)(c4ccc(Cl)cc4Cl)O3)cc2)CC1 (stereo not shown) [ketoconazole]
ATP depletion at high concentrations of inhibitors of steroidogenesis (H295R cells [2]; H295R cells): enhanced ATP depletion

CC(C)CCC[C@@H](C)[C@H]1CC[C@H]2[C@@H]3CCC4=CC(=NO)CC[C@]4(C)[C@H]3CC[C@]12C [olesoxime]
effect on the inhibition of cholesterol efflux by ATR-101 (H295R cells [3]; together with ATR-101, listed as Olesoxime): no detectable effect on the inhibition of cholesterol efflux | effect on ATP depletion by ATR-101 (H295R cells [2]; [5]): reduced ATP depletion by ATR-101 | effect on ATP depletion by ATR-101 (H295R cells [2]; [6]): reduced ATP depletion by ATR-101

COc1ccc(CCN(C)CCCC(C#N)(c2ccc(OC)c(OC)c2)C(C)C)cc1OC (stereo not shown) [verapamil]
cholesterol level (filipin III binding), compound alone (H295R cells [1]; H295R cells): increased the level of cholesterol in intracellular membranes; also recorded: caused cholesterol accumulation | cortisol secretion, compound alone (H295R cells [4]; cortisol in medium, 4 h or time course): inhibited cortisol secretion | ATP level, compound alone (H295R cells [2]; H295R cells, 4 h): did not reduce the ATP levels

Cc1c(C)c2c(c(C)c1O)CC[C@@](C)(CCC[C@H](C)CCC[C@H](C)CCCC(C)C)O2 [α-tocopherol]
effect on the inhibition of cholesterol efflux by ATR-101 (H295R cells [3]; together with ATR-101): did not restore cholesterol efflux | effect on the inhibition of cortisol secretion by ATR-101 (H295R cells [4]; 40 μM of the compound together with ATR-101, 4 h): neither compound prevented the inhibition of cortisol secretion | effect on ATP depletion by ATR-101 (H295R cells [2]; [5]): restored normal or nearly normal ATP levels | effect on ATP depletion by ATR-101 (H295R cells [2]; [6]): restored the ATP level

rhodamine-123
ATP level in combination with ATR-101 versus separately (H295R cells [2]; H295R cells, 4 h): larger than additive reductions in the ATP levels | ATP level in combination with ATR-101 versus separately (H295R cells [2]; H295R cells, 4 h, listed as rhodamine 123): caused ATP depletion at concentrations that did not deplete ATP individually | fold lower concentration that reduced the ATP level in combination than required separately (H295R cells [2]; H295R cells, ATR-101 and rhodamine-123 in combination, 4 h): 5 fold
